{"source": "patent US20170112824A1", "about": "“COMBINATION THERAPIES FOR THE TREATMENT OF FUNGAL INFECTIONS” (priority 2015, published 2017)", "origin": "cited, not measured here", "key": {"[1]": {"conditions": "in vivo"}}}
{"compound": "NC(=O)NO", "note": "[Hydroxyurea, hydroxyurea]", "values": [{"measurement": "water solubility", "value": "water-soluble"}, {"measurement": "absorption", "setting": "[1]", "value": "readily absorbed"}]}
